Measurements published in PMC9673804, “Design, synthesis and antitumor evaluation of novel pyrazolo[3,4-d]pyrimidines incorporating different amino acid conjugates as potential DHFR inhibitors” (Journal of Enzyme Inhibition and Medicinal Chemistry, 2022).
Entries after “also recorded” stand apart in the source; their conditions may differ.

Assays:
[1] = system: human prostate cancer (PC-3); experiment: SRB cytotoxicity assay, PC-3; format: cell-based; settings: PC-3 cells
Procedure: (§1) The SRB colorimetric assay was employed to assess the synthesized compounds’ cytotoxic effects on several cancer cell lines (Table 1)[11–14]. […] Furthermore, the effect of tested compounds was evaluated on the normal immortalized HPDE cell line.
(§2) Sulforhodamine B (SRB) assay was employed to assay in-vitro antitumor activities of all the synthesised compounds as describer previously. […] The cell lines were obtained from the American Type Culture Collection (Rockville, USA).

[2] = system: colorectal carcinoma (HCT-116); experiment: SRB cytotoxicity assay, HCT-116; format: cell-based; settings: Homo sapiens, HCT-116 cells
Procedure: as §1, §2

[3] = system: pancreatic human cancer cell lines (BxPC-3); experiment: SRB cytotoxicity assay, BxPC-3; format: cell-based; settings: BxPC-3 cells
Procedure: as §1, §2

[4] = system: human hepatocellular carcinoma (HepG-2); experiment: SRB cytotoxicity assay, HepG-2; format: cell-based; settings: HepG2, HepG-2 cells
Procedure: as §1, §2

[5] = system: mammary gland breast cancer (MCF-7); experiment: SRB cytotoxicity assay, MCF-7; format: cell-based; settings: Homo sapiens, MCF7, MCF-7 cells
Procedure: as §1, §2

[6] = system: normal immortalised pancreatic cell line (HPDE); experiment: SRB cytotoxicity assay, normal HPDE cells; format: cell-based; settings: normal immortalized HPDE cell line
Procedure: as §1, §2

[7] = system: MCF-7 breast cancer cell line; experiment: Flow cytometric cell cycle analysis; format: cell-based, human
Excerpt: Clearly, compound 7f enhanced the accumulation proportion of cells at the pre-G1 phase from 2.19 to 41.36%, and the accumulation percentages in S phase from 31.87 to 46.36%. […] Figure 8).

DHFR = experiment: Western blot of DHFR expression in MCF-7; format: cell-based, human
Procedure: (§3) The effect of compound 7f on the expression of DHFR, Casp3, Bax, and Bcl-2 proteins in MCF-7 cancer cells was evaluated by western blotting as previously performed. The cancer cells treated or untreated were collected were harvested and blotted on SDS-polyacrylamide gel and separated by Cleaver electrophoresis unit (Cleaver, UK), transferred onto polyvinylidene fluoride (PVDF) membranes (Millipore, USA) for 30 min using a Semi-dry Electroblotter (Biorad, USA) at 2.5 A and 25 V for 30 min. […] After washing, the chemiluminescent Western ECL substrate (Perkin Elmer, Waltham, MA, USA) was applied to the blot and then incubated for 1 min with a mixture of equal volumes from ECL solution A and ECL solution B. The chemiluminescent signals were captured using a CCD camera-based imager (Chemi Doc imager, Biorad, USA), and the bands intensities were then measured by Image J software program. […] For colorimetric assays two-way ANOVA test followed by Bonferroni posttest were used, while for quantification expression on western blot, student-t-test was used (significance p < 0.05). […]
(§4) Sodium dodecyl sulfate polyacrylamide gel electrophoresis (SDS-PAGE) is used to separate proteins based on their size. […] The secondary antibody is typically linked to an enzyme that produces luminescence upon the reaction with its substrate. […]

caspase 3 = experiment: Western blot of caspase-3 expression in MCF-7; format: cell-based, human
Procedure: as §3, §4

caspase 3/7 = experiment: Caspase-Glo 3/7 assay in MCF-7; format: cell-based, human; settings: ½ IC50, IC50, 2×IC50, dose dependent
Procedure: (§5) The apoptotic effect of compound 7f on breast cancer cell line MCF-7 were evaluated by quantification of Bax, caspase 3/7, and Bcl-2 using Bax ELISA Kit ab199080 (ABCAM, Cambridge, UK), Caspase-Glo 3/7 assay kits (Promega, Fitchburg, MA, USA), and Bcl-2 ELISA Kit ab119506 (ABCAM, Cambridge, UK), according the instructions of manufacturers[11]^,[14]. The cells were treated with compounds 7f (½ IC50, IC50, or 2 ×IC50), and the activities were shown as a percentage change from the untreated control. The experiments were performed in triplicate applying two-way ANOVA test followed by Bonferroni posttest to evaluate the significance (p < 0.05).

Bax = Bax ELISA in MCF-7; format: cell-based, human; settings: ½ IC50, IC50, 2×IC50, dose dependent
Procedure: as §5

## N=C(N)NCCCC(NC(=O)c1ccc(Nc2ncnc3c2cnn3-c2ccccc2)cc1)C(=O)O (centres unmarked) [Compound 7f, 5-Guanidino-2-{4-[(1-phenyl-1H-pyrazolo[3,4-d]pyrimidin-4-yl)amino]benzamido}pentanoic acid]
[1]
  IC50: 6.29 ± 0.56 µM
[2]
  IC50: 5.48 ± 0.04 µM
[3]
  IC50: 7.09 ± 0.09 µM
[4]
  IC50: 5.12 ± 0.01 µM
[5]
  IC50: 4.65 ± 0.17 µM
[6]
  IC50: > 50 µM
[7]; MCF-7 cells
  Comment (cell cycle arrest): arrested cell cycle at S phase; also recorded: Cell growth arrest at S
[7]; MCF-7 cells treated with the compound, control 2.19
  %Pre-G1: 41.36%
[7]; MCF-7 cells treated with the compound, control 12.01
  %G2/M: 1.5%
[7]; MCF-7 cells treated with the compound, control 31.87
  %S: 46.39%
[7]; MCF-7 cells treated with the compound, control 56.12
  %G0-G1: 52.11%
DHFR; MCF7 cells, Cont.MCF7 0.808
  western blotting OD DHFR: 0.346 OD
DHFR; MCF-7 cancer cell line
  DHFR expression (western blot): significantly diminished the DHFR expression
Caspase 3; MCF7 cells, Cont.MCF7 0.171
  western blotting OD Casp3: 0.575 OD
Caspase 3; MCF-7
  expression of caspase 3 (western blot): significantly increased the expression
Caspase 3/7
  release of caspase 3/7: significantly surge the release
Bax
  release of Bax protein: significantly surge the release
